Experimental data reported in patent US9023789B2, “Amylin analogs and pharmaceutical compositions thereof” (Novo Nordisk A/S, priority 2012, dated 2015).
Converted amounts (≈) assume the structure as drawn. Read-outs that look alike come from different tables or passages of the source. One block for each molecule: values may come before it. Numbered stars: 1 amine (or outer) side, 2 acyl side, 3 side chain; on linkers, the order of the positions; unused ones are H or OH. Bridge positions count the residues as written; N and C are the ends. Side chains are listed from the residue outwards. Peptide text beside a SMILES is read from it. * marks the point of attachment. C20 diacid = O=C(O)CCCCCCCCCCCCCCCCCCC(=O)*; γGlu = O=C(O)[C@H](CCC(=O)[*:2])N[*:1]

Tests used:
[1] = target: T1, human amylin 3(a) receptor (human calcitonin receptor + RAMP-3) in BHK570 cells (Homo sapiens, UniProt O60896+P30988); assay: ASSAY (II)a functional assay, human amylin receptor (CRE luciferase); type: cell-based; settings: for EC50: human amylin receptor functional potency, assay (II), read-out: hAmylin-R funct. EC50
T1 construct: expressed in transfected cells
Outline: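 BHK cells stably carrying a CRE-luciferase reporter plus calcitonin receptor, or calcitonin receptor with RAMP-3 for the amylin 3(a) receptor, were seeded and kept overnight at 37° C. Compounds were added in assay medium with 10% FBS and 10 mM Hepes, pH 7.4, for 3 hours at 37° C, then luminescence was counted.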

[2] = target: T2, human calcitonin (a) receptor in BHK570 cells (Homo sapiens, UniProt P30988); assay: ASSAY (II)a functional assay, human calcitonin receptor (CRE luciferase); type: cell-based; settings: read-out: hCTR funct. EC50
T2 construct: expressed in transfected cells
T2 sequence (P30988 25-474): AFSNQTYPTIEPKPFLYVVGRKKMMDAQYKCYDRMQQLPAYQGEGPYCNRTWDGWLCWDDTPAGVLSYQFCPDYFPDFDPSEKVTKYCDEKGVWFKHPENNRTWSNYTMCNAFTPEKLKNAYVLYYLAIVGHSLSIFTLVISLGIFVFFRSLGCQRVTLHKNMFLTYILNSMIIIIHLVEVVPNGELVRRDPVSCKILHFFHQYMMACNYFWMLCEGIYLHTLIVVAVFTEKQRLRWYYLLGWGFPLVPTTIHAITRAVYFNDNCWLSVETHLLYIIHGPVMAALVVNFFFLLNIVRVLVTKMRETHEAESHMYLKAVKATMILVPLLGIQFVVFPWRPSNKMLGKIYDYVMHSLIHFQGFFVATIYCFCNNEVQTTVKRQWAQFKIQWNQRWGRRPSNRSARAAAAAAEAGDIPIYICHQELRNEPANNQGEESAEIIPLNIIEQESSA
Excerpt: 1. Luciferase Assay Outline
Activation of calcitonin and amylin (coexpression of calcitonin receptor and receptor activity modifying proteins (RAMP)) receptors lead to increased intracellular concentrations of cAMP. Consequently, transcription is activated by promoters containing multiple copies of the cAMP response element (CRE). It is thus possible to measure amylin activity by the use of a CRE luciferase reporter gene introduced into BHK cells also expressing calcitonin or amylin receptors.
2. Construction of Calcitonin (a)- and Amylin 3(a)-Receptor/CRE-Luc Cell Line.
The cell line was further transfected with RAMP-3, using standard methods. This turns the calcitonin receptor into an amylin 3(a) receptor. Methotrexate, Neomycin, and Hygromycin are selection markers for luciferase, the calcitonin receptor, and RAMP-3, respectively.
To perform activity assays, BHK calcitonin (a) receptor- or amylin 3(a)-receptor/CRE-luc cells were seeded in white 96 well culture plates at a density of about 20.000 cells/well. […] After incubation overnight at 37° C. and 5% CO2, the growth medium was replaced by 50 μl/well assay medium (DMEM (without phenol red), Glutamax™, 10% FBS, and 10 mM Hepes, pH 7.4). Further, 50 μl/well of standard or sample in assay buffer were added. After 3 hours incubation at 37° C. and 5% CO2, the assay medium with standard or sample were removed and replaced by 100 μl/well PBS. Further, 100 μl/well LucLite™ was added. The plates were sealed and incubated at room temperature for 30 minutes. Finally, luminescence was measured on a TopCounter (Packard) in SPC (single photon counting) mode.

[3] = ASSAY (IV) determination of solubility; type: physicochemical
Experimental: Assay (IV)—Determination of Solubility
The polypeptide was dissolved in water at −500 nmol/ml and mixed 1:1 with a series of buffers (100 mM glycylglycine pH 3.0, 100 mM glycylglycine pH 4.0, 100 mM glycylglycine pH 5.0, 100 mM bistrispropane pH 6.0, 100 mM bistrispropane pH 6.5, 100 mM bistrispropane pH 7.0, 100 mM bistrispropane pH 7.5, 100 mM bistrispropane pH 8.0). After 18 hours at room temperature the samples were centrifuged and the polypeptide concentration determined by UPLC.

[4] = target: T3, human amylin receptor (membranes from Amylin 3(a)/CRE-luc cells) (Homo sapiens, UniProt O60896+P30988); assay: ASSAY (V) binding to the human amylin receptor (SPA, 125I-rat amylin);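 further: competition binding of cell membranes (35 ng/µL) mixed with SPA beads in 384-well plates at 40 µL total volume, read by scintillation counting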
T3 construct: expressed in transfected cells
T3 sequence (P30988 25-474): T2 sequence (P30988 25-474)
T3 sequence (O60896 24-148 partner): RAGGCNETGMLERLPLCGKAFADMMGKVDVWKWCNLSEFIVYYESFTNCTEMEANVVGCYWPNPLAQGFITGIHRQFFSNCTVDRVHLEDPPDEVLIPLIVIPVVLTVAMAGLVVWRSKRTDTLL

[5] = target: T4, rat amylin receptor (rat calcitonin receptor + rat RAMP 3) (Rattus norvegicus, UniProt P32214+Q9JJ73); assay: ASSAY (VI) binding to the rat amylin receptor; settings: for IC50: binding to rat amylin receptor, read-out: rAmylin-R bind IC50
T4 construct: expressed in transfected cells; host or cells: BHK tk'ts 13 (transient, FuGENE 6), membranes
T4 sequence (P32214 25-479 isoform P32214-2 limits assumed): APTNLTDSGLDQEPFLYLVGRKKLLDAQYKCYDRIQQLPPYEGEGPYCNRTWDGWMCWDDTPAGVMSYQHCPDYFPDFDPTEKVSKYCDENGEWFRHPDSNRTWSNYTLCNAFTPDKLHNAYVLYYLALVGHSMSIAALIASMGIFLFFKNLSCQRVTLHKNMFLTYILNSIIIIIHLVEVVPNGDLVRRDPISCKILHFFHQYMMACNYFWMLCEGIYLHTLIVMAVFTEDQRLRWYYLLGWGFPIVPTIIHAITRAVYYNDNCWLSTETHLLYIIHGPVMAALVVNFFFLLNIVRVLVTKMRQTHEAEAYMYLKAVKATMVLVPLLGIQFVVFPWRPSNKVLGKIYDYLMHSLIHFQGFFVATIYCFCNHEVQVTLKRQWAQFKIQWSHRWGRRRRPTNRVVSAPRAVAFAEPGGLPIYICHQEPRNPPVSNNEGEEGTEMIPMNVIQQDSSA
T4 sequence (Q9JJ73 23-147 partner): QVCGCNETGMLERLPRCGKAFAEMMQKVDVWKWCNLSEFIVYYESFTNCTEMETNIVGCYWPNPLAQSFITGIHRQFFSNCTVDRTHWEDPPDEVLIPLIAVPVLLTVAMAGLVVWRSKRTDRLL
Experimental: Assay (VI)—Determination of the Binding to the Rat Amylin Receptor […] The BHK tk′ts 13 cells were transiently transfected with rat calcitonin receptor using FuGENE® 6 (Roche), according to the manufacturer's recommendations. […] Approximately 48 hours after transfection, the cells were harvested and membranes were prepared.

rat calcitonin receptor = target: T5, rat calcitonin receptor (Rattus norvegicus, UniProt P32214); assay: ASSAY (VIII) binding to the rat calcitonin receptor; settings: Table 7, read-out: rCTR bind IC50
T5 construct: expressed in transfected cells; host or cells: BHK tk'ts 13 (transient, FuGENE 6), membranes
T5 sequence (P32214 25-479 isoform P32214-2 limits assumed): T4 sequence (P32214 25-479 isoform P32214-2 limits assumed)
Experimental: Assay (VIII)—Determination of Binding to the Rat Calcitonin Receptor
The BHK tk′ts 13 cells were transiently transfected with rat calcitonin receptor using FuGENE® 6 (Roche), according to the manufacturer's recommendations. Cells were grown in DMEM with 10% FBS and 1% Pen/Strep. Approximately 48 hours after transfection, the cells were harvested and membranes were prepared.

[6] = target: T6, human calcitonin receptor (Homo sapiens, UniProt P30988); assay: ASSAY (VII) binding to the human calcitonin receptor (SPA, 125I-Calcitonin); settings: read-out: hCTR bind IC50;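 further: cell membranes (35 ng/µL) combined with SPA beads in 40 µL of pH 7.4 Hepes buffer, 384-well format, signal counted on a TopCounter instrument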
T6 construct: expressed in transfected cells
T6 sequence (P30988 25-474): T2 sequence (P30988 25-474)

[7] = human functional selectivity: hCTR funct. EC50 / hAmylin-R funct. EC50
[8] = Table 5, selectivity, hCTR bind IC50 / hAmylin-R bind IC50
[9] = Table 7, human binding selectivity, included for comparison
[10] = Table 7, rat binding selectivity, rCTR IC50 / rAmylin-R IC50

EC50 [1]: 0.205 nM | Ratio hCT/hAmylin funct. [1, 7]: 6.7 | EC50 [2]: 1.38 nM | solubility at 18 h ([3]; bistrispropane buffer, pH 6.5, read-out: Solubility pH 6.5 Concentration): ≥ 200 µM | solubility at 18 h ([3]; bistrispropane buffer, pH 7.5, read-out: Solubility pH 7.5 Concentration): ≥ 200 µM | solubility at 18 h ([3]; bistrispropane buffer, pH 6.0, read-out: Solubility pH 6.0 Concentration): 189 µM (≈ 853 µg/mL) | solubility at 18 h ([3]; bistrispropane buffer, pH 7.0, read-out: Solubility pH 7.0 Concentration): 195 µM (≈ 880 µg/mL) | solubility at 18 h ([3]; bistrispropane buffer, pH 8.0, read-out: Solubility pH 8.0 Concentration): ≥ 200 µM | solubility at 18 h ([3]; glycylglycine buffer, pH 3.0, read-out: Solubility pH 3.0 Concentration): ≥ 200 µM | solubility at 18 h ([3]; glycylglycine buffer, pH 4.0, read-out: Solubility pH 4.0 Concentration): 96 µM (≈ 433 µg/mL) | solubility at 18 h ([3]; glycylglycine buffer, pH 5.0, read-out: Solubility pH 5.0 Concentration): 141 µM (≈ 636 µg/mL) | Ratio hCT/hAmylin binding [4, 8]: 17.3 | Ratio hCT/hAmylin binding ([4]; Table 5a, selectivity, hCTR bind IC50 / hAmylin-R bind IC50): 17.3 | Ratio hCT/hAmylin binding ([4]; Table 5b, selectivity, hCTR bind IC50 / hAmylin-R bind IC50): 17.3 | Ratio hCT/hAmylin binding [4, 9]: 17.3 | Ratio hCT/hAmylin binding ([4]; Table 7a (preferred compounds), human binding selectivity, included for comparison): 17.3 | Ratio hCT/hAmylin binding ([4]; ratio of human calcitonin receptor binding IC50 to human amylin receptor binding IC50): 17.3 | IC50 ([5]; Table 7): 1 nM | Ratio rCT/rAmylin binding [5, 10]: 16.7 | Ratio rCT/rAmylin binding ([5]; Table 7a (preferred compounds), rat binding selectivity, rCTR IC50 / rAmylin-R IC50): 16.7 | Ratio rCT/rAmylin binding ([5]; ratio of rCTR bind IC50 to rAmylin-R bind IC50): 16.7 | IC50 (rat calcitonin receptor): 16.7 nM
Compound: CC(C)C[C@H](NC(=O)[C@H](CCCNC(=N)N)NC(=O)[C@H](CCC(N)=O)NC(=O)[C@@H](NC(=O)[C@H](C)NC(=O)[C@@H]1CSSC[C@H](NC(=O)[C@@H](N)CCCCNC(=O)CC[C@H](NC(=O)CC[C@H](NC(=O)CCCCCCCCCCCCCCCCCCC(=O)O)C(=O)O)C(=O)O)C(=O)N[C@@H](CC(N)=O)C(=O)N[C@@H]([C@@H](C)O)C(=O)N[C@@H](C)C(=O)N[C@@H]([C@@H](C)O)C(=O)N1)[C@@H](C)O)C(=O)N[C@@H](C)C(=O)N[C@@H](CC(=O)O)C(=O)N[C@@H](Cc1ccccc1)C(=O)N[C@@H](CC(C)C)C(=O)N[C@@H](CCCNC(=N)N)C(=O)N[C@@H](Cc1c[nH]cn1)C(=O)N[C@@H](CO)C(=O)N[C@@H](CO)C(=O)N[C@@H](CC(N)=O)C(=O)N1CCC[C@H]1C(=O)N[C@@H](Cc1ccccc1)C(=O)NCC(=O)N[C@@H](C)C(=O)N1CCC[C@H]1C(=O)N[C@@H](CC(C)C)C(=O)N[C@@H](CO)C(=O)N[C@@H](CO)C(=O)N[C@H](C(=O)N[C@@H](CC(N)=O)C(=O)N[C@H](C(=O)NCC(=O)N[C@@H](CO)C(=O)N[C@@H](CC(=O)O)C(=O)N[C@H](C(=O)N[C@@H](Cc1ccc(O)cc1)C(N)=O)[C@@H](C)O)C(C)C)[C@@H](C)O [Example 3] (H-K([γGlu-γGlu-C20 diacid])CNTATCATQRLADFLRHSSNPFGAPLSSTNVGSDTY-NH2; disulfide 2-7; N-terminus assumed)

Compound: CC[C@H](C)[C@H](NC(=O)[C@@H]1CCCN1C(=O)CNC(=O)[C@H](Cc1ccccc1)NC(=O)[C@H](CC(N)=O)NC(=O)[C@@H]1CCCN1C(=O)[C@H](CO)NC(=O)[C@H](CO)NC(=O)[C@H](Cc1c[nH]cn1)NC(=O)[C@H](CCCNC(=N)N)NC(=O)[C@H](CC(C)C)NC(=O)[C@H](Cc1ccccc1)NC(=O)[C@H](CCC(=O)O)NC(=O)[C@H](C)NC(=O)[C@H](CC(C)C)NC(=O)[C@H](CCCNC(=N)N)NC(=O)[C@H](CCC(N)=O)NC(=O)[C@@H](NC(=O)[C@H](C)NC(=O)[C@@H]1CSSC[C@H](NC(=O)[C@H](CCCCN)NC(=O)CC[C@H](NC(=O)CCCCCCCCCCCCCCCCCCC(=O)O)C(=O)O)C(=O)N[C@@H](CC(N)=O)C(=O)N[C@@H]([C@@H](C)O)C(=O)N[C@@H](C)C(=O)N[C@@H]([C@@H](C)O)C(=O)N1)[C@@H](C)O)C(=O)N[C@@H](CC(C)C)C(=O)N1CCC[C@H]1C(=O)N1CCC[C@H]1C(=O)N[C@H](C(=O)N[C@@H](CC(N)=O)C(=O)N[C@H](C(=O)NCC(=O)N[C@@H](CO)C(=O)N[C@@H](CC(N)=O)C(=O)N[C@H](C(=O)N1CCC[C@H]1C(N)=O)[C@@H](C)O)C(C)C)[C@@H](C)O [Example 4] ({C20 diacid-γGlu}-KCNTATCATQRLAEFLRHSSPNFGPILPPTNVGSNTP-NH2; disulfide 2-7)
Ratio hCT/hAmylin funct. ([1]; hCTR funct. EC50 / hAmylin-R funct. EC50): 1.2 | Ratio hCT/hAmylin funct. ([1]; hCTR funct. EC50 over hAmylin-R funct. EC50): 1.2 | EC50 [1]: 0.06 nM | Ratio hCT/hAmylin funct. [1, 7]: 1.2 | EC50 [2]: 0.07 nM | IC50 ([4]; Table 4, read-out: hAmylin-R bind IC50): 0.321 nM | Ratio hCT/hAmylin binding [4, 8]: 2.1 | Ratio hCT/hAmylin binding [4, 9]: 2.1 | IC50 ([5]; Table 7): 1.3 nM | Ratio rCT/rAmylin binding [5, 10]: 3.1 | IC50 [6]: 0.688 nM
